According to patent US20050124647A1, “Tricyclic derivatives of indole with antiangiogenic activity” (Sigma-Tau Industrie Farmaceutiche Riunite S.p.A., priority 2000, published 2005):
Where two headings read alike, the source gives them in different places.

Columns and labels:
MCF-7/DX = test: Antiproliferative activity vs resistant cell MCF-7/DX; format: cell-based; conditions: Homo sapiens, MCF7/DX; resistant cell (doxorubicin-resistant, P-glycoprotein overexpressing); read-out: IC50 +/− SD, MCF-7/DX
Experimental: (§1) The test used was the sulforodamine B test used for screening anticancer products at the National Cancer Institute (Skehan, 1990). The molecules at scalar concentrations over a range from 500 μM to 0.97 μM, were incubated in parallel with different human cell lines for 24 hours. After removing the products, cell survival was investigated after another 48 hours with the NCI test. The antiproliferative capacity of the compounds was quantified in terms of IC50±SD (concentration of the molecule that inhibits 50% of cell survival) processed using a curve fitting program (De Lean et al., 1978).
(§2) The cytotoxicity of the molecules on tumour lines resistant to chemosensitising activity was assessed on various tumour cell lines overexpressing P-glycoprotein and resistant to doxorubicin (100-fold) and cross-resistant to daunorubicin, actinomycin D, mitoxantrone, vincristine, vinblastine, taxol, colchicine, and etoposide. The cytotoxicity of the products was assessed using the same test adopted for the sensitive tumour cells.

BMEC [1] = test: Cytotoxicity on endothelial cells (BMEC); format: cell-based, bovine
LoVo/DX = test: Antiproliferative activity vs resistant cell LoVo/DX; format: cell-based; conditions: Homo sapiens, resistant cell (doxorubicin-resistant, P-glycoprotein overexpressing), read-out: IC50 +/− SD, LoVo/DX
Experimental: as §1, §2

BMEC [2] = test: Chemotactic assay with the Boyden chamber on BMEC; format: cell-based, bovine
Experimental: For the antiangiogenic activity the chemotactic assay with the Boyden chamber was performed (Werner F., Goodwin R. H. and Leonard E. J., Journal of Immunological Methods 1980; 33, 239-247), using both bovine aortal endothelial cell (BAEC) cultures and bovine medullary endothelial cell (BMEC) cultures. The assays were performed at IC0 (maximum non-cytotoxic concentration) and the results expressed as % inhibition of migration across a porous filter in response to a chemotactic stimulus (1% bovine serum in DMEM culture medium). This finding was obtained by direct cell count under the optical microscope, and the percentage migration inhibition was calculated according to the formula (T−C/C)×100, where T=mean number of cells migrating in the sample and C=mean number of cells migrating in the control. The control consisted of cells which migrated towards the serum, not treated with the study molecules, and included in every chemotaxis experiment. The data refer to the readings of 5 microscopic fields/well in 4 independent chemotaxis wells per sample.

Row | Structure (SMILES) | IC50 (MCF-7/DX) | IC50 (LoVo/DX) | IC0 (maximum non-cytotoxic concentration) (BMEC [1]) | activity on chemotaxis of endothelial cells (in words) (BMEC [2]) | activity on chemotaxis of endothelial cells (in words) (BMEC [2]; listed as ST 1381)
1 | c1[nH]c2cc3c(cc2c1C1CCCCc2c1[nH]c1cc4c(cc21)OCO4)OCO3 (racemic) [ST1749, 1-(5″,6″-methylendioxy-indol-3-yl)-5′,6′-methylendioxy-indo[2,3-a]-cycloeptane] |  |  | 100 µM |  | 
2 | c1ccc2c(C3CCCCc4c3[nH]c3ccccc43)c[nH]c2c1 (racemic) [ST1381, 1-(indol-3-yl)-indo[2,3a]-cycloheptan.] | 28.4 µM | 25.2 µM | 30 µM | active | better anti-chemiotactic compound
3 | CC1(C)OCC(C2c3c([nH]c4ccccc34)C(c3c[nH]c4ccccc34)C3OC(C)(C)OC32)O1 (racemic) [ST1372, 1-(indol-3-yl)-2,3-O-isopropylidene-4-(2,3-O-isopropylidene-ethyl)-tetra-hydrocarbazole] | 26.9 µM | 26.3 µM |  |  | 
4 | c1ccc2c(C3CCCc4[nH]c5ccccc5c43)c[nH]c2c1 (racemic) [ST1729, 4-(1H-indol-3-yl)-tetrahydro-1H-carbazole] |  |  | 25 µM |  | 

The next lines start with results.

Row | IC50 (MCF-7/DX) | IC50 (LoVo/DX) | Structure (SMILES) | IC0 (maximum non-cytotoxic concentration) (BMEC [1]) | activity on chemotaxis of endothelial cells (in words) (BMEC [2]) | activity on chemotaxis of endothelial cells (in words) (BMEC [2]; listed as ST 1381)
5 | 39 µM |  | Oc1ccc2[nH]cc(C3CCCCc4c3[nH]c3ccc(O)cc43)c2c1 (racemic) [ST1783, 1-(5″-hydroxy-1H-indol-3-yl)-5′-hydroxy-indo[2,3a]-cycloheptan] | 10 µM |  | 
6 | 58.6 µM |  | c1[nH]c2cc3c(cc2c1C1CCCc2c1[nH]c1cc4c(cc21)OCO4)OCO3 (racemic) [ST1751, 1-(5′,6′-methylendioxy-1H-indol-3-yl)-6,7-methylendioxy-tetrahydro-1H-carbazole] |  |  | 
7 | 71 µM | 65.1 µM | c1ccc(COc2ccc3[nH]cc(C4CCCCc5[nH]c6ccc(OCc7ccccc7)cc6c54)c3c2)cc1 (racemic) [ST1778, 5-(5″-benzyloxy-indol-3-yl)-5′-benzyloxy-indo[2,3a]-cycloheptan.] | 25 µM |  | 
8 | 68.3 µM | 23.8 µM | c1ccc2c(C3CCCCc4[nH]c5ccccc5c43)c[nH]c2c1 (racemic) [ST1621, 5-(indol-3-yl)-indo(2,3a]-cycloheptan.] | 0.1 µM |  | 
9 | 24.8 µM | 17 µM | c1ccc(COc2ccc3[nH]cc(C4CCCCc5c4[nH]c4ccc(OCc6ccccc6)cc54)c3c2)cc1 (racemic) [ST1765, 1-(5″-benzyloxy-indol-3-yl)-5′-benzyloxy-indo[2,3a]-cycloheptan] |  |  | 
